Test [1] concerns the target T1, SmbA (Caulobacter vibrioides, UniProt Q9A5E6, DEL198-215).
T1 construct: gene CC_2504; SmbA∆loop, partial loop 7 deletion (fragment 198–215 deleted), His6
T1 sequence (Q9A5E6 with tags, fused parts or gaps DEL198-215): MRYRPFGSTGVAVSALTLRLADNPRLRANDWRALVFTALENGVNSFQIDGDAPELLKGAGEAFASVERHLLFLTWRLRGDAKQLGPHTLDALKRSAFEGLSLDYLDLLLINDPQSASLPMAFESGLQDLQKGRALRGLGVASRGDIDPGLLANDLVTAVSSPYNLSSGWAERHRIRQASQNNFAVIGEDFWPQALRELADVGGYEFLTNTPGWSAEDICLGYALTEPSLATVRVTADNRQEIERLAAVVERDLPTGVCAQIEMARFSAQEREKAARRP
As to the kind of experiment: X-ray crystal structure at […] Å; ITC ([…] stoichiometry). It is filed as binding.

For test [2], the target named is T2, SmbA (Caulobacter vibrioides, UniProt Q9A5E6).
T2 construct: gene CC_2504; SmbAwt, His6
T2 sequence (Q9A5E6 1-296): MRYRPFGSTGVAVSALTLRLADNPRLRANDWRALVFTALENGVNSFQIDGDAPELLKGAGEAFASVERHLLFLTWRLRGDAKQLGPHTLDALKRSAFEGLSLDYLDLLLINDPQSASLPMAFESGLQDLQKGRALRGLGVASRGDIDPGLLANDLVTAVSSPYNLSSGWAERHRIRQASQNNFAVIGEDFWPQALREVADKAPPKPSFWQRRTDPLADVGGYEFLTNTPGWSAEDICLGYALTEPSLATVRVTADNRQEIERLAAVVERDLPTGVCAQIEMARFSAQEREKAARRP
As to the kind of experiment: ITC (apparent Kd); AUC sedimentation shift. Format: binding.

SMILES strings stand for the structures.

As to `Nc1nc2c(ncn2[C@@H]2O[C@@H]3CO[P@](=O)(O)O[C@H]4[C@@H](O)[C@H](n5cnc6c(=O)[nH]c(N)nc65)O[C@@H]4CO[P@](=O)(O)O[C@H]3[C@H]2O)c(=O)[nH]1` [c-di-GMP], the Kd at SmbA [1] worked out at 1800 nM; at SmbA [2] it was 300 nM.
